Key:
[1] = molecular target: PDGFRα (Homo sapiens, UniProt P16234); assay: Caliper Mobility Shift Assay, kinase inhibition; assay type: biochemical; details: read-out: Kinase inhibitory activity (IC50, nM) PDGFRα
[2] = molecular target: T1, FLT3 (Homo sapiens, UniProt P36888); assay: Caliper Mobility Shift Assay, kinase inhibition; assay type: biochemical; details: read-out: Kinase inhibitory activity (IC50, nM) FLT3
T1 sequence (P36888 27-993): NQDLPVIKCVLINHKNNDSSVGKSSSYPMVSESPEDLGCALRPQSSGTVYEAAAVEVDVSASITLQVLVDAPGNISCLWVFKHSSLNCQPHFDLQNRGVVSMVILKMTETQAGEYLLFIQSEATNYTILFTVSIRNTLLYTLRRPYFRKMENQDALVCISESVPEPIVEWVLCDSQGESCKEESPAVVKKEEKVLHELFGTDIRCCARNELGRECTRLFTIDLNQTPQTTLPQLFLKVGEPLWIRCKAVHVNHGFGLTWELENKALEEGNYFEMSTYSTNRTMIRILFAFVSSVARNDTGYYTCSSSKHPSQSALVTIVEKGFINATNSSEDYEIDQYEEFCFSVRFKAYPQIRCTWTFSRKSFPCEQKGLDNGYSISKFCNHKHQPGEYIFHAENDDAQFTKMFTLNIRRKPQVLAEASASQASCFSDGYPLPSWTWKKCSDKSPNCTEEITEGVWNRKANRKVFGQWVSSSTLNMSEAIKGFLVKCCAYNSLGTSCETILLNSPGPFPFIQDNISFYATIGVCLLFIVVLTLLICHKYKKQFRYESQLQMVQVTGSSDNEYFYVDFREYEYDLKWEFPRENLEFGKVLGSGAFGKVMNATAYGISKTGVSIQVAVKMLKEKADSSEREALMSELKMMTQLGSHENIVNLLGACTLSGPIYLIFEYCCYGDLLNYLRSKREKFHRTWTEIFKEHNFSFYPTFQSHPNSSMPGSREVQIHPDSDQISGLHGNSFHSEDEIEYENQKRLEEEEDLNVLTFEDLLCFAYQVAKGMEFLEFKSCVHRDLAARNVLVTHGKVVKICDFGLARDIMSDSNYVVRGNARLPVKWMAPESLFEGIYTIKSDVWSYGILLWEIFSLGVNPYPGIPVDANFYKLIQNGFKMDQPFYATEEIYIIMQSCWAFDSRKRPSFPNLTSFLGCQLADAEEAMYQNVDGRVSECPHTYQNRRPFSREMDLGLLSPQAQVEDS

[3] = molecular target: RET (Homo sapiens, UniProt P07949); assay: Caliper Mobility Shift Assay, kinase inhibition; assay type: biochemical; details: read-out: Kinase inhibitory activity (IC50, nM) RET
[4] = molecular target: FGFR1 (Homo sapiens, UniProt P11362); assay: Caliper Mobility Shift Assay, kinase inhibition; assay type: biochemical; details: read-out: Kinase inhibitory activity (IC50, nM) FGFR1
[5] = molecular target: VEGFR1 (Homo sapiens, UniProt P17948); assay: Caliper Mobility Shift Assay, kinase inhibition; assay type: biochemical; details: read-out: Kinase inhibitory activity (IC50, nM) VEGFR1
[6] = molecular target: VEGFR3 (Homo sapiens, UniProt P35916); assay: Caliper Mobility Shift Assay, kinase inhibition; assay type: biochemical; details: read-out: Kinase inhibitory activity (IC50, nM) VEGFR3
Sequence of VEGFR3 (P35916 25-1363, species assumed): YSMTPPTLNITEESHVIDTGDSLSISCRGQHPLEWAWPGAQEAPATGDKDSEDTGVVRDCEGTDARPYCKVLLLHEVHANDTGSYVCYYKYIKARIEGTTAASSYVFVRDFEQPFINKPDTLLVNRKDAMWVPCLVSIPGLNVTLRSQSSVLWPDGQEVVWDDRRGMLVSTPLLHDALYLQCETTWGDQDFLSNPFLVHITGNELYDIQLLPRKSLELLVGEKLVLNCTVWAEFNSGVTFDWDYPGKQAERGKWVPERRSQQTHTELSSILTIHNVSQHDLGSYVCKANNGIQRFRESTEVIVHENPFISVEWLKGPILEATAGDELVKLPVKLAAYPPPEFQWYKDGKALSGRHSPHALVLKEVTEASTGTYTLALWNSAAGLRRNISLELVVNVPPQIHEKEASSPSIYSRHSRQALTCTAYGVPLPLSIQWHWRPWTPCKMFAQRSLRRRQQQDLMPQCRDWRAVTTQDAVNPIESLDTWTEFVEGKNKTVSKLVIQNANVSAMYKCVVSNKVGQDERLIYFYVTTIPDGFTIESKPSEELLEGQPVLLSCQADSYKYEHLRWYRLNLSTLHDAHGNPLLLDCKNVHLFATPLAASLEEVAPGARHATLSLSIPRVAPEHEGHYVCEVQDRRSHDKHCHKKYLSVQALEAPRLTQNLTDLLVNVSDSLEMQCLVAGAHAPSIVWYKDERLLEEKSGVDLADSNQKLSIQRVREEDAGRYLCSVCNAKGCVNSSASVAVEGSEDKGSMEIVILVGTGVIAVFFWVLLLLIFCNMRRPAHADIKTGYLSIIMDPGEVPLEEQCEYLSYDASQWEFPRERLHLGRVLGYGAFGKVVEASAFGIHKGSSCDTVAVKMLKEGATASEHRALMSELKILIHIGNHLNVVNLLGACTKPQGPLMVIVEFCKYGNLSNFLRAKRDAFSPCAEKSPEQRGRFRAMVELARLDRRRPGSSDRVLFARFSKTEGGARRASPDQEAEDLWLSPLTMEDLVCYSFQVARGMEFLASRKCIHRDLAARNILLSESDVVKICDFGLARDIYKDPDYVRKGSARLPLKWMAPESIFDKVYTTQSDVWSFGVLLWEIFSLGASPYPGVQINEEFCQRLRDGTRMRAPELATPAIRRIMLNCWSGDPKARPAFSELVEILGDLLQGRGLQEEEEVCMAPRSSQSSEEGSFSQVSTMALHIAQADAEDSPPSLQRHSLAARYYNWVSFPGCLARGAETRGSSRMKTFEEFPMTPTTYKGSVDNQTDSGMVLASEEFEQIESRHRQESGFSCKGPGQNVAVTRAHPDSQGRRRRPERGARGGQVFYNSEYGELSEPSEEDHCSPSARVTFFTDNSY

[7] = Pharmacokinetic property evaluation test in CD-1 mice, intravenous; assay type: in vivo; details: both sexes, mouse, plasma, intravenous injection, 3 mg/kg, single administration, non-compartment model; for half-life: read-out: Terminal t1/2 (converted); for Vd: read-out: Vss
Procedure: Experimental animals: CD-1 mice, males and females; weight: 20-25 g;
[…] Route of administration: intravenous injection. […] Dosage: 3 mg/kg.
Sample collection: Blood was collected at the following time points: 5 min, 15 min, 30 min, 1 hr, 2 hr, 4 hr, 8 hr, and 24 hr after administration.
Sample analysis: The collected samples were tested using the LC-MS/MS method. The instrument model was API4000.
Pharmacokinetic data analysis: The obtained plasma concentration data were fitted and calculated according to the non-compartment model using WinNolin, and some results are summarized in Table 2.

[8] = molecular target: EGFR (Homo sapiens, UniProt P00533); assay: Caliper Mobility Shift Assay, kinase inhibition; assay type: biochemical; details: read-out: Kinase inhibitory activity (IC50, nM) EGFR
Sequence of EGFR (P00533 25-1210, species assumed): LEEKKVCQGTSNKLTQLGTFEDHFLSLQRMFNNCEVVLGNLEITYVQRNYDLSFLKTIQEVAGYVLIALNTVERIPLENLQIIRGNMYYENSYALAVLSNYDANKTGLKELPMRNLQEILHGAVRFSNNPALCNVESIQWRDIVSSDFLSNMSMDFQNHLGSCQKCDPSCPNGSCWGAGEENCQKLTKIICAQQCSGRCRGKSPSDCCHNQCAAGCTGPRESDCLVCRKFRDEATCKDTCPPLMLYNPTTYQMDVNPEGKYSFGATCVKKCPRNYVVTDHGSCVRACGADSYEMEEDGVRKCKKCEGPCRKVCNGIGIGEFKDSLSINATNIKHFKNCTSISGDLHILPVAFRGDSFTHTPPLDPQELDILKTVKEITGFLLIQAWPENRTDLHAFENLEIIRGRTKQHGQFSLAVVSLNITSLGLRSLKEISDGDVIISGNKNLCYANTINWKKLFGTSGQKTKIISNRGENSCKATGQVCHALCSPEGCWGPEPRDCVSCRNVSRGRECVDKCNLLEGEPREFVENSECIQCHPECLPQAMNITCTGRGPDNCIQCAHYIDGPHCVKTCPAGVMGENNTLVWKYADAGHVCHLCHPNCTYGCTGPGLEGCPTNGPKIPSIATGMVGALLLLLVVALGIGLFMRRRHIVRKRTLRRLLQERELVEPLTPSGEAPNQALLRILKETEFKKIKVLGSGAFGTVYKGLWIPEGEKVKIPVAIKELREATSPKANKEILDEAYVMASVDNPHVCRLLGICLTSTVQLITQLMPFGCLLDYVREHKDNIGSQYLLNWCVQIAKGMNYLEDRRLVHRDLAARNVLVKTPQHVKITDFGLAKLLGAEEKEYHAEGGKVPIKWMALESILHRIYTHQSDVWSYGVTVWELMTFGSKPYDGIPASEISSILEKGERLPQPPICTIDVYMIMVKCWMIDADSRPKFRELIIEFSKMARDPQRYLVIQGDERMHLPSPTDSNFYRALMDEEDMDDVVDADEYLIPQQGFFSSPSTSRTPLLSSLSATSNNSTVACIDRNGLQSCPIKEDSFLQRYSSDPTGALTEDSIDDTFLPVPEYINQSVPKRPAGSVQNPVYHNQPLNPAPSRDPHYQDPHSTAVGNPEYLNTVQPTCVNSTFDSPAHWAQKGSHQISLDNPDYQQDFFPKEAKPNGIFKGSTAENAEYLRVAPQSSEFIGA
Procedure: (§1) The semi-inhibitory concentration IC50 (the concentration of the compound required to inhibit the enzymatic activity to 50%) of a compound was measured by mixing a fixed enzyme with a specific substrate and the test compound of different concentrations. The test method used was Caliper Mobility Shift Assay, the kinases tested were VEGFR1, VEGFR2, VEGFR3, FLT3, PDGFRα, PDGFRβ, FGFR1, RET, EGFR and IGF1R, and the standard reference compound used was staurosporine.

[9] = molecular target: IGF1R (Homo sapiens, UniProt P08069); assay: Caliper Mobility Shift Assay, kinase inhibition; assay type: biochemical; details: read-out: Kinase inhibitory activity (IC50, nM) IGF1R
Procedure: as §1

[10] = molecular target: PDGFRβ (Homo sapiens, UniProt P09619); assay: Caliper Mobility Shift Assay, kinase inhibition; assay type: biochemical; details: read-out: Kinase inhibitory activity (IC50, nM) PDGFRβ
[11] = molecular target: VEGFR2 (Homo sapiens, UniProt P35968); assay: Caliper Mobility Shift Assay, kinase inhibition; assay type: biochemical; details: read-out: Kinase inhibitory activity (IC50, nM) VEGFR2
Sequence of VEGFR2 (P35968 20-1356, species assumed): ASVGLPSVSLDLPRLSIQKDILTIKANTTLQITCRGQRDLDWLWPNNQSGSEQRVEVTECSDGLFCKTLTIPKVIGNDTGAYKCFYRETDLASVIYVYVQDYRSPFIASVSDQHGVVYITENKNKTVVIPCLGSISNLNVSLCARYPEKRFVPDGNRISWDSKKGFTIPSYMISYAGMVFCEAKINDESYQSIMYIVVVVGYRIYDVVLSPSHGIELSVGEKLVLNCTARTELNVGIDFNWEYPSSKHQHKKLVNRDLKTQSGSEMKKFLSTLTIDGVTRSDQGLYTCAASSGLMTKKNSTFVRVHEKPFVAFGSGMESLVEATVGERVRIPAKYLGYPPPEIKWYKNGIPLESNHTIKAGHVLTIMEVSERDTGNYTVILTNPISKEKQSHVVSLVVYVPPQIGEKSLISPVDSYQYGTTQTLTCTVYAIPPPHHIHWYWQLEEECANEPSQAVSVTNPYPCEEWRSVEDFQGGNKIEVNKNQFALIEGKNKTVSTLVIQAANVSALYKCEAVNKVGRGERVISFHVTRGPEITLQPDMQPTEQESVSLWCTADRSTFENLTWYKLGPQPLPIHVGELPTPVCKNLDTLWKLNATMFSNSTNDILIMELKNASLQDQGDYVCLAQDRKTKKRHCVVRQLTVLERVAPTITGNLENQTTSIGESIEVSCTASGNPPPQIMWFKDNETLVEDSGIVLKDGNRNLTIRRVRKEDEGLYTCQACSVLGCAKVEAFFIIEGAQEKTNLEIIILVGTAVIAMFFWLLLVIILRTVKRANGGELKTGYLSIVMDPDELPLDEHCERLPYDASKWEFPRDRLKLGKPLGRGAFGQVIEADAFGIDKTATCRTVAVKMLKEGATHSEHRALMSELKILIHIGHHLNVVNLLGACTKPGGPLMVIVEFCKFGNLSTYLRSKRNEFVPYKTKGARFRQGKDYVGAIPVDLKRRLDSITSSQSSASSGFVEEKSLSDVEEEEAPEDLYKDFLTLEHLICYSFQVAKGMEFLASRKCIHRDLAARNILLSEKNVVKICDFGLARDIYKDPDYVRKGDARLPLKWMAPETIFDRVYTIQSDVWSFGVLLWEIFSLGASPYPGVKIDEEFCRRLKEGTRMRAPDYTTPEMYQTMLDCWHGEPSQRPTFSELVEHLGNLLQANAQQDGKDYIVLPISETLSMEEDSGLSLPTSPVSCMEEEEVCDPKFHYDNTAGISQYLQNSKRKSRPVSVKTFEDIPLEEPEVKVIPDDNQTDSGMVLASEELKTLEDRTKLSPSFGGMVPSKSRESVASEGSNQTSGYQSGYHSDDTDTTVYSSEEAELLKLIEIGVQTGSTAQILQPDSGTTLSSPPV

Sequence of PDGFRα (P16234 24-1089, species assumed): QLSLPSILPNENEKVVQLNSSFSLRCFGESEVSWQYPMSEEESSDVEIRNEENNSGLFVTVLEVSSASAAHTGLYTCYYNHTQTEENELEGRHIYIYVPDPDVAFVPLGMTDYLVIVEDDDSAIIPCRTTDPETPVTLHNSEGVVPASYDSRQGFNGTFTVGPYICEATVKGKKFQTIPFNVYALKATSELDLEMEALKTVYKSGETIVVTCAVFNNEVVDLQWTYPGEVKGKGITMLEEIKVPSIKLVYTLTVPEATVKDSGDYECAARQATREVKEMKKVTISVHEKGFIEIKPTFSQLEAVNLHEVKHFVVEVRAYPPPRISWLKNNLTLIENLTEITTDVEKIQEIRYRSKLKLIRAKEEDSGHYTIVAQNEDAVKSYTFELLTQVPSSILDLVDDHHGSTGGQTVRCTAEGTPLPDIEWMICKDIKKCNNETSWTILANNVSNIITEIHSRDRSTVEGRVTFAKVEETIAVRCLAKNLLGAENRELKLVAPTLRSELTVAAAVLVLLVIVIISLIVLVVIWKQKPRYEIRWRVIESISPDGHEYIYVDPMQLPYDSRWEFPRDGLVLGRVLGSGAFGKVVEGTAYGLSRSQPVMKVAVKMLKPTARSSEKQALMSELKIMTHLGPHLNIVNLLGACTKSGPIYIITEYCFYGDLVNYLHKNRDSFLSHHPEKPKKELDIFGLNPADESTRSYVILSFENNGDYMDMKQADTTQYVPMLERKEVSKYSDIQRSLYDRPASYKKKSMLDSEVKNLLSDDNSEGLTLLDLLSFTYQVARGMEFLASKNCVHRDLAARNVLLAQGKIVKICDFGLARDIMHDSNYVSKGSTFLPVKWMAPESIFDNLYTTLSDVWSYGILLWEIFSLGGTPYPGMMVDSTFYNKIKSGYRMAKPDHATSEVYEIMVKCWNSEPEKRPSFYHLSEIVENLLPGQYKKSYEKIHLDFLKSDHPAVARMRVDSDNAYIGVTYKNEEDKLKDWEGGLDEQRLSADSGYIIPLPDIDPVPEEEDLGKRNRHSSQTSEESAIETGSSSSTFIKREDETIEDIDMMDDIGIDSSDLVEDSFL

Row | IC50 [1] | IC50 [2] | IC50 [3] | IC50 [4] | IC50 [5] | IC50 [6] | AUC(0-t) [7] | MRT inf [7] | clearance [7] | half-life [7] | Vd [7] | IC50 [8] | IC50 [9] | IC50 [10] | IC50 [11] | Structure (SMILES)
1 | 27 nM | 576 nM | 106 nM | > 1000 nM | 381 nM | 56 nM | 2040 ng·h/mL | 20.4 min | 25.2 mL/min/kg | 28.2 min | 0.525 L/kg | > 500000 nM | > 500000 nM | 110 nM | 2.4 nM | CNC(=O)c1cc2c(Oc3ccc(NC(=O)Nc4cnn(C)c4)cc3F)ccnc2cc1OC [Compound of Formula Ia]
2 | 37 nM | 890 nM | 290 nM | > 1000 nM | 555 nM | 84 nM | 1600 ng·h/mL | 49.2 min | 30.5 mL/min/kg | 134 min | 1.48 L/kg | > 200000 nM | > 200000 nM | 165 nM | 3 nM | COc1cc2nccc(Oc3ccc(NC(=O)Nc4cnn(C)c4)cc3F)c2cc1C(N)=O [Compound of Formula Ib]
3 |  |  |  |  |  |  |  |  |  |  |  | 10600 nM | > 400000 nM |  |  | CNC(=O)c1cc(Oc2ccc(NC(=O)Nc3ccc(Cl)c(C(F)(F)F)c3)c(F)c2)ccn1 [Regorafenib, regorafenib, reference compound]
4 | 42 nM | 708 nM | 204 nM | > 1000 nM | 831 nM | 34 nM |  |  |  |  |  | > 200000 nM | > 200000 nM | 151 nM | 11 nM | COc1cc2nccc(Oc3ccc(NC(=O)Nc4cn[nH]c4)cc3F)c2cc1C(N)=O [Compound of Formula Ic]
